Counter-ions that a name gives are not always drawn.
Each compound was assayed on HT-1080 (fibrosarcoma) cells (assay: Primary screening by ferroptosis assay (Erastin-induced, cell viability, CellTiter-Glo)). Conditions: HT-1080 cells, 30 hours, % remaining activity, read-out: EC50, Inhibition for Ferroptosis in HT-1080 Cell.
Type: cell-based
Method: Cell Lines and Media: HT-1080 (fibrosarcoma) cells were obtained from American Type Culture Collection. Cells were grown in EMEM media, 10% Heat-Inactivated FBS, and penicillin-streptomycin mix (Invitrogen). Cells were maintained at 37° C. and 5% CO2 in a tissue culture incubator.
Cell Viability Assay: Seed 10,000 cell/well of HT-1080 cells with 195 μL growth media in black and clear bottom 96-well plates (Cat #Corning 3904) and allow cells to adhere overnight. The next day, dilute test compound by 2-fold dilution into 12 points with medium containing 400 μM Erastin. Transfer 5 μL of compounds solution into growth medium in triplicated wells. 30 hours later, add Cell Titer-Glo® Luminescent cell viability assay reagent (Cat #, Promega G8081) to measure HT-1080 cell viability according to the manufacture protocol. Briefly, aspirate 100 μL medium, and add 50 μL CellTiter-Glo® Luminescent reagent to each well and incubated for 30 minutes at room temperature to stabilize the Luminescent signal. Seal the plates and centrifuged for 1 minute at 1,000 rpm to remove bubbles. Shake the plates for 1 minute on an orbital shaker. Read the plate to detect Luminescent signal with EnSpire Multimode Plate Reader (PerkinElmer). The remaining activity % is used to evaluate Erastin induced ferroptosis in HT-1080 cells and expressed as the following formula: % Remaining Activity−100×[(Sample−Backgroundavg)/(Vehicle−Background avg)]
Sample: Readout from the test compound
Vehicle: Readout from the vehicle sample
Background: Readout from the Erastin only treatment
Dose response curve is graphed by using the non-linear regression analysis (formula equation 201) in XLFit (Excel add-in software) for the average % remaining activity from triplicates, and the EC50 values is then calculated. In this anti-ferroptosis assay, ferrostatin-1, and XJB-5-131 are included as reference. The acceptance criteria were set based on historical result, mean±2.58*SD in logarithmic scale, meanwhile Z′>0.5.

SMILES	EC50
CC(C)C[C@@H](/C=C/[C@H](Cc1ccccc1)C(=O)N1CCC[C@H]1C(=O)N[C@H](C(=O)N[C@@H](CCCNC(=O)OCc1ccccc1)C(=O)NC1CC(C)(C)N([O])C(C)(C)C1)C(C)C)NC(=O)OC1CC(C)(C)N([O])C(C)(C)C1 [Example VIII, 1-Oxyl-2,2,6,6-tetramethylpiperidin-4-yl N-[(4S,5E,7S)-7-benzyl-8-[(2S)—2-{[(1S)—1-{[(1S)—4-{[(benzyloxy)carbonyl]amino}-1-[(1-oxyl-2,2,6,6-tetramethylpiperidin-4-yl)carbamoyl]butyl]carbamoyl}-2-methylpropyl]carbamoyl}pyrrolidin-1-yl]-2-methyl-8-oxooct-5-en-4-yl]carbamate]	266 nM
CC(C)C[C@@H](/C=C/[C@H](Cc1ccccc1)C(=O)N1CCC[C@H]1C(=O)N[C@@H](CCCNC(=O)OC(C)(C)C)C(=O)NC1CC(C)(C)N([O])C(C)(C)C1)NC(=O)OC(C)(C)C [Example XX, tert-Butyl N-(4-{[(2S)-1-[(2R,3E,5S)-2-benzyl-5-{[(tert-butoxy)carbonyl]amino}-7-methyloct-3-enoyl]pyrrolidin-2-yl]formamido}-4-[(1-oxyl-2,2,6,6-tetramethylpiperidin-4-yl)carbamoyl]butyl)carbamate]	532 nM

Same assay, conditions: Homo sapiens, HT-1080, 30 h, HT-1080 cells, % remaining activity, read-out: EC50, Inhibition for Ferroptosis in HT-1080 Cell

SMILES	EC50
CC(C)C[C@@H](/C=C/C(Cc1ccccc1)C(=O)N1CCC[C@H]1C(=O)N[C@H](C(=O)N[C@@H](CCCNC(=O)OCc1ccccc1)C(=O)NC1CC(C)(C)N(O)C(C)(C)C1)C1CC1)NC(=O)OC(C)(C)C (stereo in doubt) [Example XII, Benzyl N-[(4S)-4-[(2S)—2-{[(2S)-1-[(2R,3E,5S)-2-benzyl-5-{[(tert-butoxy)carbonyl]amino}-7-methyloct-3-enoyl]pyrrolidin-2-yl]formamido}-2-cyclopropylacetamido]-4-[(1-hydroxy-2,2,6,6-tetramethylpiperidin-4-yl)carbamoyl]butyl]carbamate]	481 nM
CC(C)C[C@@H](/C=C/[C@H](Cc1ccccc1)C(=O)N1CCCC1C(=O)N[C@@H](CCCCNC(=O)OC1CC(C)(C)N(O)C(C)(C)C1)C(=O)OC1CCCCC1)NC(=O)OC(C)(C)C (stereo in doubt) [Example XXXXVI, (S)—Cyclohexyl 2-((R)-1-((2S,5S,E)-2-benzyl-5-((tert-butoxycarbonyl)amino)-7-methyloct-3-enoyl)pyrrolidine-2-carboxamido)-6-((((1-hydroxy-2,2,6,6-tetramethylpiperidin-4-yl)oxy)carbonyl)amino)hexanoate]	66.3 nM
CC(C)C[C@@H](/C=C/[C@H](Cc1ccccc1)C(=O)N1CCC[C@@H]1C(=O)NC1CC(C)(C)N(O)C(C)(C)C1)NC(=O)OC(C)(C)C [Example VI, tert-Butyl N-[(4S,5E,7S)-7-benzyl-8-[(2R)-2-[(1-hydroxy-2,2,6,6-tetramethylpiperidin-4-yl)carbamoyl]pyrrolidin-1-yl]-2-methyl-8-oxooct-5-en-4-yl]carbamate]	1020 nM
CC(C)C[C@@H](/C=C/[C@H](Cc1ccccc1)C(=O)N1CCC[C@H]1C(=O)N1CCC[C@H]1C(=O)N[C@@H](CCCNC(=O)OCc1ccccc1)C(=O)NC1CC(C)(C)N(O)C(C)(C)C1)NC(=O)OC(C)(C)C [Example XI, Benzyl N-[(4S)-4-1-{[(2S)-1-[(2S)-1-[(2R,3E,5S)-2-benzyl-5-{[(tert-butoxy)carbonyl]amino}-7-methyloct-3-enoyl]pyrrolidine-2-carbonyl]pyrrolidin-2-yl]formamido}-4-[(1-hydroxy-2,2,6,6-tetramethylpiperidin-4-yl)carbamoyl]butyl]carbamate]	526 nM
CC(C)C[C@H](N)/C=C/[C@H](Cc1ccccc1)C(=O)N1CCC[C@H]1C(=O)N[C@H](CCCNC(=O)OCc1ccccc1)C(=O)NC1CC(C)(C)N(O)C(C)(C)C1 [Example XIII, Benzyl N-[(4R)—4-{[(2S)-1-[(2S,3E,5S)-5-amino-2-benzyl-7-methyloct-3-enoyl]pyrrolidin-2-yl]formamido}-4-[(1-hydroxy-2,2,6,6-tetramethyl-piperidin-4-yl)carbamoyl]butyl]carbamate dihydrochloride]	262 nM
CC(C)C[C@@H](/C=C/[C@H](Cc1ccccc1)C(=O)N1CCC[C@H]1C(=O)N[C@@H](C)C(=O)N[C@@H](CCCNC(=O)OCc1ccccc1)C(=O)NC1CC(C)(C)N(O)C(C)(C)C1)NC(=O)OC(C)(C)C [Example XIV, Benzyl N-[(4S)-4-[(2S)—2-{[(2S)-1-[(2S,3E,5S)-2-benzyl-5-{[(tert-butoxy)carbonyl]amino}-7-methyloct-3-enoyl]pyrrolidin-2-yl]formamido}propanamido]-4-[(1-hydroxy-2,2,6,6-tetramethylpiperidin-4-yl)carbamoyl]butyl]carbamate]	515 nM
CC(C)C[C@@H](/C=C/[C@H](Cc1ccccc1)C(=O)N1CCC[C@H]1C(=O)N[C@@H](Cc1ccc(O)cc1)C(=O)NC1CC(C)(C)N(O)C(C)(C)C1)NC(=O)OC(C)(C)C [Example XVI, tert-Butyl N-[(4S,5E,7S)-7-benzyl-8-[(2S)—2-{[(1S)-1-[(1-hydroxy-2,2,6,6-tetramethylpiperidin-4-yl)carbamoyl]-2-(4-hydroxyphenyl)ethyl]carbamoyl}pyrrolidin-1-yl]-2-methyl-8-oxooct-5-en-4-yl]carbamate]	536 nM
CC(C)C[C@@H](/C=C/[C@H](Cc1ccccc1)C(=O)N1CCC[C@@H]1C(=O)N[C@@H](CCCNC(=O)OCc1ccccc1)C(=O)NC1CC(C)(C)N(O)C(C)(C)C1)NC(=O)OC(C)(C)C [Example XVII, Benzyl N-[(4S)—4-{[(2R)-1-[(2S,3E,5S)-2-benzyl-5-{[(tert-butoxy)carbonyl]amino}-7-methyloct-3-enoyl]pyrrolidin-2-yl]formamido}-4-[(1-hydroxy-2,2,6,6-tetramethylpiperidin-4-yl)carbamoyl]butyl]carbamate]	284 nM
COC(=O)[C@H](CCCNC(=O)OC1CC(C)(C)N(O)C(C)(C)C1)NC(=O)[C@@H]1CCCN1C(=O)[C@H](/C=C/[C@H](CC(C)C)NC(=O)OC(C)(C)C)Cc1ccccc1 [Example XVIII]	86 nM

Same assay, conditions: Homo sapiens, HT-1080 cells, 30 hours, % remaining activity, read-out: EC50, Inhibition for Ferroptosis in HT-1080 Cell

SMILES	EC50
CC(C)C[C@H](N)/C=C/[C@H](Cc1ccccc1)C(=O)N1CCC[C@H]1C(=O)N[C@H](C(=O)N[C@@H](CCCNC(=O)OCc1ccccc1)C(=O)NC1CC(C)(C)N(O)C(C)(C)C1)C(C)C [Example XV, Benzyl N-[(4S)-4-[(2S)—2-{[(2S)-1-[(2S,3E,5S)-5-amino-2-benzyl-7-methyloct-3-enoyl]pyrrolidin-2-yl]formamido}-3-methylbutanamido]-4-[(1-hydroxy-2,2,6,6-tetramethylpiperidin-4-yl)carbamoyl]butyl]carbamate trifluoroacetic acid salt]	2230 nM
CC(C)C[C@@H](/C=C/[C@H](Cc1ccccc1)C(=O)N1CCC[C@@H]1C(=O)N[C@@H](CCCNC(=O)OC(C)(C)C)C(=O)NC1CC(C)(C)N(O)C(C)(C)C1)NC(=O)OC(C)(C)C [Example XXI, tert-Butyl N-[(4S,5E,7S)-7-benzyl-8-[(2R)—2-{[(1S)—4-{[(tert-butoxy)carbonyl]amino}-1-[(1-hydroxy-2,2,6,6-tetramethylpiperidin-4-yl)carbamoyl]butyl]carbamoyl}pyrrolidin-1-yl]-2-methyl-8-oxooct-5-en-4-yl]carbamate]	257 nM

Reference: patent US10889572B2, “Reactive oxygen species scavengers and use for treating diseases” (XW LABORATORIES INC., priority 2017, dated 2021)
